The results in this text go back to paper PMC11256326, “Discovery of Heparin Mimetic, Potent, and Selective Inhibitors of Human Clotting Factor XIIIa” (ACS Omega, 2024).

Series [1] deals with MCF-7 human breast carcinoma cells. Briefly: cell viability, Alamar Blue, MCF-7. Type of series: cell-based. The note with it: MCF-7, 10 μM, 3 days. Here is the method:
(§1) To further evaluate the selectivity as well as the potential toxicity of inhibitors, we studied their effects on the clotting times of normal human plasma as well as their effects on the proliferation of three cell lines. On the one hand, the inhibitors’ effects on activated partial thromboplastin time (APTT) and prothrombin time (PT) were measured, as described earlier under in vitro conditions,[52]−[55] using variable concentrations (0–2000 μM) (Table 3). […] On the other hand, the antiproliferative properties of inhibitors 13 and 16 were evaluated in three cell lines of breast (MCF-7), intestine (CaCo-2), and kidney (HEK-293) (Figure 5B), as described earlier.[56] […] Overall, inhibitor 16 can be considered for further development as a potent, selective, and nontoxic inhibitor of human FXIIIa.
(§2) HEK-293 human embryonic kidney cells,[66] CaCo-2 heterogeneous human epithelial colorectal adenocarcinoma cells,[67] and MCF-7 human breast carcinoma cells[68] were treated as reported previously.[69],[70] […] Subsequently, fluorescence readings (λEx. = 560 nm and λEm. = 590 nm) were taken using the Synergy H1 multiplate reader (BioTek) to quantify cell numbers both in the absence (utilizing distilled water as a control) and the presence of inhibitors 13 and 16 (at a concentration of 10 μM; incubated for 3 days). […]

Series [2] addresses T1, FXIIIa (Homo sapiens, UniProt P00488).
T1 construct: purchased Haematologic Technologies; host or cells: human plasma
T1 sequence (P00488 39-732 limits assumed): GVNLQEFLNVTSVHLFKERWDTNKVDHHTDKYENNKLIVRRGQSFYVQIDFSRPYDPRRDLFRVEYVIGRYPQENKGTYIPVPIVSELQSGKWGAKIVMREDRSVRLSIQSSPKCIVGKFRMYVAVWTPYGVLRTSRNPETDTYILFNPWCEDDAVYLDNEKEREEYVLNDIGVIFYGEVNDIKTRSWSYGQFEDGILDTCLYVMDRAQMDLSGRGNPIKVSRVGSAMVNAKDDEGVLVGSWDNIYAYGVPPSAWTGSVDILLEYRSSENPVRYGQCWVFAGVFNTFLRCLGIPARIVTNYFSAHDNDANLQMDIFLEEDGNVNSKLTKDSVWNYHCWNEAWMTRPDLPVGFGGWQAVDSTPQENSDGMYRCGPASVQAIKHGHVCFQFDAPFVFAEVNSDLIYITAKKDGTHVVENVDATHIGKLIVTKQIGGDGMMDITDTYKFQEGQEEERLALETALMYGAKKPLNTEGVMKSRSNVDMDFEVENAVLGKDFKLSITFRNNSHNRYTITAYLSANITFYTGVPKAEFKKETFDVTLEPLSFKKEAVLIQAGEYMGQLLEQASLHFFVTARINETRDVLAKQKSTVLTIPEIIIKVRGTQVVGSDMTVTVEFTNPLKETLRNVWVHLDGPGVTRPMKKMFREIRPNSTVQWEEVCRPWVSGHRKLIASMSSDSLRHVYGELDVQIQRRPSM
Briefly: FXIIIa-mediated fibrin(ogen) polymerization by SDS-PAGE. Format: biochemical. The note with it: for effect on FXIIIa-mediated fibrin(ogen) polymerization / γ–γ dimer formation: 5–3000 μM (13), 5–2000 μM (16). Here is the method: The effect of inhibitors 13 and 16 on FXIIIa-mediated fibrin(ogen) polymerization was investigated by sodium dodecyl sulfate-polyacrylamide gel electrophoresis (SDS-PAGE), as reported earlier.[36],[49] A solution containing 13 mg/mL fibrinogen and 2.0 μg/mL FXIIIa in Tris-HCl buffer of pH 7.4 containing 10 mM CaCl2 was either incubated with different concentrations of inhibitors 13 (5, 50, 500, 1000, 2000, and 3000 μM) or 16 (5, 50, 500, 1000, 1500, and 2000 μM) or buffer. The resulting mixture was then clotted in the presence of human α-thrombin (2.5 μg/mL). The clots were incubated for 24 h at room temperature before the addition of denaturing buffer and then incubated overnight at 25 °C. Samples were boiled in a water bath for 10 min before centrifugation at 12 000g at 20 °C for 3 min; the supernatants were examined by SDS-PAGE on homogeneous 10% cross-linked gels and stained with Coomassie Brilliant Blue. The first lane contains the protein markers, whereas the second lane contains the cross-linked fibrin(ogen) formed in the presence of human α-thrombin (Figure 7). […] In both cases, the inhibition appears to achieve 100% efficacy similar to the inhibition assay results.
The impact of inhibitors 13 and 16 on FXIIIa-mediated fibrin polymerization was further explored via gel electrophoresis, as previously described.[36],[49] […] The resulting clots were incubated for 24 h at room temperature before the addition of denaturing buffer containing 25 mM NaH2PO4, 1.9% (w/v) SDS, 5.7 M urea, and 1.9% (w/v) DTT, followed by overnight incubation at room temperature. Subsequently, the samples were boiled in a water bath for 10 min, followed by centrifugation at 12,000g at 20 °C for 3 min; the supernatants were then analyzed by SDS-PAGE on homogeneous 10% cross-linked gels and stained with Coomassie Brilliant Blue.

The subject of series [3] is HEK-293 human embryonic kidney cells. Briefly: cell viability, Alamar Blue, HEK-293. Format: cell-based. The note with it: HEK-293, 10 μM, 3 days. The procedure: as §1, §2
For orientation: Alamar Blue is a resazurin reagent that responds to reducing activity.

As for `Nc1c(S(=O)(=O)O)cc(Nc2ccc(Nc3nc(Cl)nc(Nc4ccccc4S(=O)(=O)O)n3)c(S(=O)(=O)O)c2)c2c1C(=O)c1ccccc1C2=O` [compound 13], the “effect on proliferation / cell viability” value in series [1] and in series [3] was “does not significantly affect the proliferation” throughout. The “efficacy of inhibition of fibrin(ogen) polymerization” value in series [2] is given as approximately 100%. In series [2], the “effect on FXIIIa-mediated fibrin(ogen) polymerization / γ–γ dimer formation” value is listed as “concentration-dependently inhibited”.
As to `Nc1c(/N=N/c2ccc(S(=O)(=O)CCOS(=O)(=O)O)cc2)c(S(=O)(=O)O)cc2cc(S(=O)(=O)O)c(/N=N/c3ccc(S(=O)(=O)CCOS(=O)(=O)O)cc3)c(O)c12` [compound 16], in series [1], the “effect on proliferation / cell viability” value is given as “does not significantly affect the proliferation”. In series [2], the “efficacy of inhibition of fibrin(ogen) polymerization” value is approximately 100% and the “effect on FXIIIa-mediated fibrin(ogen) polymerization / γ–γ dimer formation” value is reported as “concentration-dependently inhibited”. Further, in series [3], the “effect on proliferation / cell viability” value was “does not significantly affect the proliferation”.
